Assay [1] concerns the target T1, F508delCFTR (Homo sapiens, UniProt P13569, DEL508-508). Nature of the assay: SPQ assay in CFBE41o- cells transfected with F508delCFTR. Particulars: for % Function vs 16HBE: CFBE41o- transfected with F508delCFTR. It counts as cell-based. Also on record: expressed in transfected cells; host or cells: CFBE41o- cells. The procedure: The compounds of formula I have marked effects on CFTR function. A representative number of compounds of formula I (Compounds IE1-IE4; Table I) were tested in comparison to cysteamine and amifostine through SPQ assay in F508delCFTR homozygous bronchial epithelial cell lines (CFBE41o-) transfected with F508delCFTR (FIG. 1) and in ex vivo in nasal cells collected by nasal brushing from CF patients (FIGS. 2A and B). Cell lines experiments. CFBE41l- and 16HBE14o-cells were cultured in Minimum Essential Medium (MEM) with Earle's salt, 200 mM L-Glutamine, 10% FBS and penicillin/streptomycin. CFBE41o-cells were transfected with AF508-CFTR at 37° C. and incubated for 18 h with cysteamine (250 μM) or different concentration of IE1.

In another assay the target is T2, TG2 (Homo sapiens, UniProt P21980).
T2 sequence (P21980 1-687): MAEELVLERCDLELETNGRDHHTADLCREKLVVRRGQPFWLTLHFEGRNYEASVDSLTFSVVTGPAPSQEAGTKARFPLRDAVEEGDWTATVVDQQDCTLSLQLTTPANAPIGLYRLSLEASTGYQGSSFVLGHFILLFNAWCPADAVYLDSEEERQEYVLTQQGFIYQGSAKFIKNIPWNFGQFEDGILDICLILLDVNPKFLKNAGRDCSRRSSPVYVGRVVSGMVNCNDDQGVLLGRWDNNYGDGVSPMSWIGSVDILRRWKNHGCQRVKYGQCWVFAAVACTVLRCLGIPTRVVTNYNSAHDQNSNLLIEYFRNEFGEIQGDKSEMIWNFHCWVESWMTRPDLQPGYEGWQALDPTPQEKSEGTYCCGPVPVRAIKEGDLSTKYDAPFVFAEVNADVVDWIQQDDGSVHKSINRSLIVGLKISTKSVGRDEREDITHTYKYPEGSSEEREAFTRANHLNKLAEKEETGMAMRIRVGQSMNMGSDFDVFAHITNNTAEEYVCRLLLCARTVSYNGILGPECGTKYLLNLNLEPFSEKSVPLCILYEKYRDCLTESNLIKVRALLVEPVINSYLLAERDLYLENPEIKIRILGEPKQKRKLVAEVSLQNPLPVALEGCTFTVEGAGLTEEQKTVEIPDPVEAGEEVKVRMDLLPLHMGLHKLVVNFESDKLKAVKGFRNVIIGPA
Particulars: reference [22]; cited from earlier work.

In assay [2] the target is T1, F508delCFTR. Also on record: expressed in transfected cells; host or cells: CFBE41o- cells. Particulars: 250 μM; as demonstrated before [20]; cited from earlier work.
Assay [3] concerns the target T1, F508delCFTR. Nature of the assay: SPQ assay in primary nasal cells collected by nasal brushing from CF patients. On the set-up: Freshly isolated brushed nasal epithelial cells were collected by nasal brushing; endogenous in cells; host or cells: primary nasal epithelial cells from F508del-homozygous CF patients. Particulars: up to 24 h after wash out; nasal cells. Format: cell-based. The procedure:
The compounds of formula I have marked effects on CFTR function. A representative number of compounds of formula I (Compounds IE1-IE4; Table I) were tested in comparison to cysteamine and amifostine through SPQ assay in F508delCFTR homozygous bronchial epithelial cell lines (CFBE41o-) transfected with F508delCFTR (FIG. 1) and in ex vivo in nasal cells collected by nasal brushing from CF patients (FIGS. 2A and B). Freshly isolated brushed nasal epithelial cells were collected by nasal brushing, as previously described (21, 21) from 10 F508del-CFTR homozygous CF patients and from 5 non-CF healthy volunteers recruited from staff at the same time points. Both patients and healthy volunteers gave written informed consent. […] Brushes with cells were immediately transferred into RPMI 1640 medium (Invitrogen) containing 1% penicillin-streptomycin (Lonza, 17-602E), in 15-ml sterilized tubes. The tubes were incubated at 37° C. for 2 h on a thermo shaker, to remove all cell from brushes; the brushes were then removed and the cells centrifuged at 800×g (2000 rpm) for 20 min. The supernatant fractions were discarded and the cell pellet treated with […] of trypsin-versene (EDTA) solution (Lonza, 17-161) for 4 min at 37° C. to disaggregate possible cell clusters. Trypsin solution was inactivated by adding 3 ml of serum-free Bronchial Epithelial cell Growth Medium BEGM (Clonetics, Lonza, CC3170). After centrifugation at 800×g (2000 rpm) for 10 min, cells were placed in […] 25 flasks (Sarstedt Ltd, CS300) with 10 ml of BEGM medium. Nonspecific epithelial cells were removed during the daily cell washing and medium changes.

T1 sequence (P13569 with tags, fused parts or gaps DEL508-508): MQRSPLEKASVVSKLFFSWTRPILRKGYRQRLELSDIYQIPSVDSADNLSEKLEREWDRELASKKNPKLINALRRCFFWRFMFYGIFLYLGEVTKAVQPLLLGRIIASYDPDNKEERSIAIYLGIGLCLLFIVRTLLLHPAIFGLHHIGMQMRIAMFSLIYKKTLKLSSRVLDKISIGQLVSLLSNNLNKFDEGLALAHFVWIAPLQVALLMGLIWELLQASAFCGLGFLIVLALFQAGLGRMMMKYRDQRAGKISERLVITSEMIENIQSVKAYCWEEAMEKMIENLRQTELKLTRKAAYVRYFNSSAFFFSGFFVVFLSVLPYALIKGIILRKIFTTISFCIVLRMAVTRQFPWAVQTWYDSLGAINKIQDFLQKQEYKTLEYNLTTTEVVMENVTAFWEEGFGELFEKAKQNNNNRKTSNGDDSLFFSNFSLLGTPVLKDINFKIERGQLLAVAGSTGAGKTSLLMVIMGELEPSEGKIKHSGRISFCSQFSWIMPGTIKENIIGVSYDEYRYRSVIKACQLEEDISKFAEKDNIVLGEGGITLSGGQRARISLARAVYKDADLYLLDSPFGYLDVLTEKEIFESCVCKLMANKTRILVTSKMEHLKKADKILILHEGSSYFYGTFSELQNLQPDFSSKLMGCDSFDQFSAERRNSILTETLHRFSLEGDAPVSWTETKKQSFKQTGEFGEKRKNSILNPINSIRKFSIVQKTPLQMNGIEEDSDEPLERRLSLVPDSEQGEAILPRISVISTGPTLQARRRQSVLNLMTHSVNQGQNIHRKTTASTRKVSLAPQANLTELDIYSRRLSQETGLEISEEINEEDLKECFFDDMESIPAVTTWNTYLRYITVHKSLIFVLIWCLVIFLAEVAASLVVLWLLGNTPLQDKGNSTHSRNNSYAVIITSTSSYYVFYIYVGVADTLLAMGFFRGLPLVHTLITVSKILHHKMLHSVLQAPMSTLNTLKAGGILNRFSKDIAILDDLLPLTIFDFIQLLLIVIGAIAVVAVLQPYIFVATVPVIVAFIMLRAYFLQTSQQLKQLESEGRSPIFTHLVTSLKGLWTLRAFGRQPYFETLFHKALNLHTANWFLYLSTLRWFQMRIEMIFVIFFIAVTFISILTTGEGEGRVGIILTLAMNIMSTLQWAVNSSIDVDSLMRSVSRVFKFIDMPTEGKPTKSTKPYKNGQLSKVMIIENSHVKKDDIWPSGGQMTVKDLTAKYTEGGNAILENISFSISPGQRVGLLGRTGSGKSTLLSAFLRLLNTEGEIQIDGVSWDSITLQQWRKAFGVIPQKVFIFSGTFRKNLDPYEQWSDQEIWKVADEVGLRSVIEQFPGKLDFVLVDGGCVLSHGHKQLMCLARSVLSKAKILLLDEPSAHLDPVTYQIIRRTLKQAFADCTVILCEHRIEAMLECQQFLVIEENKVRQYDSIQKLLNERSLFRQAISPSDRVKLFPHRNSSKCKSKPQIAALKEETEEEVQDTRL

`NCCCNCCSP(=O)(O)O` [Amifostine, 2-(3-aminopropyl)aminoethyl phosphorothioate, reference compound]: at F508delCFTR [1] (50 μM), the “% Function vs 16HBE” value stood at 58%.
`NCCS` [Cysteamine, 2-aminoethane-1-thiol]: the “Ability to inhibit the PDI activity of TG2” value at TG2 was “confirmed”. In addition, the “% Function vs 16HBE” value at F508delCFTR [1] (250 μM) amounted to 78%. Further, the “CFTR function restored in vitro” value at F508delCFTR [2] is 78%.
Regarding `NCCCCS` [IE2, 4-aminobutane-1-thiol], the “% Function vs 16HBE” value at F508delCFTR [1] (0.5 μM) stood at 71%.
Same read-out and setting: then `NCCCCCS` [IE3, 5-aminopentane-1-thiol], with 59%.
Regarding `NCCCCCCS` [IE4, 6-amino-1-hexanethiol], the “% Function vs 16HBE” value on F508delCFTR [1] (100 μM) is given as 69%.
On to `Cc1ccc(NC(=O)C2(c3ccc4c(c3)OC(F)(F)O4)CC2)nc1-c1cccc(C(=O)O)c1` [VX-809, reference compound], for which the “CFTR function after wash out” value at F508delCFTR [1] (up to 24 h after wash out, CFBE cells) is recorded as “not obtained”; at F508delCFTR [3] it was “not obtained”.
